Results taken from US8389739B1, “Modulators of retinoid-related orphan receptor gamma” (Orphagen Pharmaceuticals, priority 2006, dated 2013).
Where “and” joins values, the source holds several entries; their conditions need not be identical. Equal entries are not always repeated. Where two headings read alike, the source gives them in different places.

Legend:
Assay type in all cases: cell-based
[1] = molecular target: T1, hPR (progesterone receptor) (Homo sapiens, UniProt P06401); experiment: Crossreactive receptor transcriptional assay (Gal4 hybrid)
T1 construct: 687-933; expressed in transfected cells; host or cells: CHO cells, transient transfection
T1 sequence (P06401 687-933): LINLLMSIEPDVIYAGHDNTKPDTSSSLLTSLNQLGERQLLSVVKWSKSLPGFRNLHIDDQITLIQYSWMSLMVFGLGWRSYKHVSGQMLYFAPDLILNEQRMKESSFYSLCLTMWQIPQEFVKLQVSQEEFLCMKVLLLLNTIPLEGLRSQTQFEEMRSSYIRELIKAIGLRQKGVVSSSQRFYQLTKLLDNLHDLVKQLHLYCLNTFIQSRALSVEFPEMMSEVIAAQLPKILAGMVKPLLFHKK

[2] = molecular target: T2, hRXRα (retinoid X receptor alpha) (Homo sapiens, UniProt P19793); experiment: as above
T2 construct: 203-462; expressed in transfected cells; host or cells: CHO cells, transient transfection
T2 sequence (P19793 203-462): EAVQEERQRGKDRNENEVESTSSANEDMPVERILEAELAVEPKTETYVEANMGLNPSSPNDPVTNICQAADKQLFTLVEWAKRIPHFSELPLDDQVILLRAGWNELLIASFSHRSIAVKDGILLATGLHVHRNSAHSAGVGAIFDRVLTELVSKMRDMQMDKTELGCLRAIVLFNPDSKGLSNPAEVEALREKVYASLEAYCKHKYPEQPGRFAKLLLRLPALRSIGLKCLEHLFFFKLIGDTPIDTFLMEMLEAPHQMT

hPPARγ = molecular target: T3, hPPARγ (Homo sapiens, UniProt P37231); experiment: as above
T3 construct: 175-477; expressed in transfected cells; host or cells: CHO cells, transient transfection
T3 sequence (P37231 175-477 isoform P37231-2): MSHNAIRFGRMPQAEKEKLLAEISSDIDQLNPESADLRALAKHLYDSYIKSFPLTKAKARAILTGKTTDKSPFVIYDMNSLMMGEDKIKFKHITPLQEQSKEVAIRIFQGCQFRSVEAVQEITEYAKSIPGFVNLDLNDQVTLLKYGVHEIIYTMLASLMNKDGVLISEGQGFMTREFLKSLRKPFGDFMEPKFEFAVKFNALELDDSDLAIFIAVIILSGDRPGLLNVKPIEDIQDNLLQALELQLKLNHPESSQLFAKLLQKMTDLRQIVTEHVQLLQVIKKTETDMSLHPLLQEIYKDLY

hPPARα = molecular target: T4, hPPARα (Homo sapiens, UniProt Q07869); experiment: as above
T4 construct: 166-468; expressed in transfected cells; host or cells: CHO cells, transient transfection
T4 sequence (Q07869 166-468): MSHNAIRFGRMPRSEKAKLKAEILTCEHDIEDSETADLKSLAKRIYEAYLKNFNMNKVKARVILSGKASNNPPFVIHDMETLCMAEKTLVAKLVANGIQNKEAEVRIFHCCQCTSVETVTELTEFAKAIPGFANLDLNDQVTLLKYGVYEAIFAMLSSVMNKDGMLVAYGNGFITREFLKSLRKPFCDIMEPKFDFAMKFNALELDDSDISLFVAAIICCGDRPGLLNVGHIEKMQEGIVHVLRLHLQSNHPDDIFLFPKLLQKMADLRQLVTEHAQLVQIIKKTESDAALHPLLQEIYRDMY

mRORγ = molecular target: T5, mRORγ (Mus musculus, UniProt P51450); experiment: Transcriptional assay, Gal4-mRORγ with luciferase reporter in CHO cells
T5 construct: expressed in transfected cells; host or cells: CHO cells, transient transfection
Experimental: The complete Gal4-mRORγ nucleotide sequence is shown below:
A firefly luciferase reporter gene for Gal4 DBD hybrid receptors, such as Gal4-RORγ, contains five copies of the Gal4 17-mer response element in its promoter and the coding sequence for firefly luciferase (pG5-luc, Promega). CHO (Chinese Hamster Ovary) cells were cultured in Ham's F12 medium supplemented with 10% fetal calf serum (Gemini Biologicals), 10 μg/ml penicillin and streptomycin, and were maintained in a humidified 37° C. incubator (Thermo Electron, Steri-Cycle) with 5% CO2. 24 hours before transfection, cells were plated in T175 flasks (5×10^6 cells/flask) or T75 flasks (1.7×10^6 cells/flask). Transient transfection of CHO cells was performed using TransIT-CHO reagents (Minis, Madison, Wis.) with a mixing ratio of 2:6:1 between plasmid DNA (in μg), TransIT-CHO (in μl) and CHO-mojo (in μl).
Plates are maintained at 37° C. in a humidified atmosphere with 7% CO2 overnight. Four (4) hours after cell seeding, compounds dissolved in DMSO at 10 mM were added to cells at final concentrations of 20 micromolar (μM) to 20 nanomolar (nM) in 0.2% DMSO in triplicate plates. Approximately 40 hours later, cytotoxicity in the assay well was characterized by addition of the dye resazurin (O'Brien, Wilson et al. 2000) to a final concentration of 3 μM. […] Percent viability was determined as 2 hour fluorescence, minus background at t=0 hours, normalized to DMSO controls. For detection of luciferase activity, media was removed from plates after the measurement of resazurin conversion, and SteadyLite luciferase reagent (Perkin-Elmer) was added (30 μl/well). Luminescence is detected with a Victor 2-V plate reader (Perkin-Elmer) and normalized to luciferase activity of DMSO control wells alone.

[3] = molecular target: T6, hFXR (farnesoid X receptor) (Homo sapiens, UniProt Q96RI1); experiment: Crossreactive receptor transcriptional assay (Gal4 hybrid)
T6 construct: 192-473; expressed in transfected cells; host or cells: CHO cells, transient transfection
T6 sequence (Q96RI1 192-472 isoform Q96RI1-2): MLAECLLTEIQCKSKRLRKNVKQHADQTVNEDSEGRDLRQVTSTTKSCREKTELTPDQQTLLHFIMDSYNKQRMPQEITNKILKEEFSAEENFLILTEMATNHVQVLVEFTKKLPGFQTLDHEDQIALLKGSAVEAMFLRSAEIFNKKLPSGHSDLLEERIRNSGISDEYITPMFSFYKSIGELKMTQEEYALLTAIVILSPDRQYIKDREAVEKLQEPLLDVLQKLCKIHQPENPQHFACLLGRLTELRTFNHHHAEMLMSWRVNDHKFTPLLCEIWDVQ

[4] = Table 6, read-out: Potency (EC50) at hPR
[5] = Table 6, read-out: Potency (EC50) at hRXRα
[6] = Table 6, read-out: Potency (EC50) at hPPARγ
[7] = Table 6, RORγ ligands: no significant activity at 20 μM, read-out: Potency (EC50) at hPPARα
[8] = read-out: EC50 in the transcriptional assay for RORγ
[9] = Table 6, read-out: Potency (EC50) at hFXR
[10] = Table 4A, medians of two or more assays, unit inferred, read-out: EC50 Transcriptional

T5 sequence (P51450 with tags, fused parts or gaps): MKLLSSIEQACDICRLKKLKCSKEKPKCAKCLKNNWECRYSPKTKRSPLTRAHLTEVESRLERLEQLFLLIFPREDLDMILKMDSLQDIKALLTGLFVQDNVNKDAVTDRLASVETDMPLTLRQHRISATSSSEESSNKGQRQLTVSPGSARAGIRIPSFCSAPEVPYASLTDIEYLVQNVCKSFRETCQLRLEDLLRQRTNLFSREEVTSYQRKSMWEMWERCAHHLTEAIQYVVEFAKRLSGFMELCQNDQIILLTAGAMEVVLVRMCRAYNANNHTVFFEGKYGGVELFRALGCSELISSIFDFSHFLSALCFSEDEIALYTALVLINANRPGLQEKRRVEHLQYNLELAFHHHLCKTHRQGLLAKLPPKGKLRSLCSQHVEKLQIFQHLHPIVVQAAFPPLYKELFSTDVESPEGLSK

| Compound | EC50 [1, 4] [µM] | EC50 [2, 5] [µM] | EC50 (hPPARγ; [6]) [µM] | EC50 (hPPARα; [7]) [µM] | EC50 (mRORγ; Table 3, steroidal antagonists, read-out: Assay EC50 in micromolar transcriptional) [µM] | EC50 (mRORγ; [8]) | EC50 [1] [µM] | EC50 [2] [µM] | EC50 (hPPARγ) [µM] | EC50 [3] [µM] | EC50 (hPPARα) [µM] | EC50 (mRORγ; Table 2, agonists, antagonist OR-376 (1.5 μM) added to reduce basal transcriptional activity, read-out: EC50 in micromolar at mRORγ Transcriptional) [µM] | EC50 [3, 9] [µM] | EC50 (mRORγ; [10]) [µM] | EC50 (mRORγ; Table 1, antagonists, inhibition of basal Gal4-mRORγ transcription in CHO cells, read-out: Assay EC50 in micromolar at mRORγ Transcriptional) [µM] | EC50 (mRORγ; Table 7, taken from Table 1, read-out: Assay EC50 in micromolar at mRORγ Transcriptional) [µM] |
| --- | --- | --- | --- | --- | --- | --- | --- | --- | --- | --- | --- | --- | --- | --- | --- | --- |
| O=S(=O)(c1ccccc1)N(CC(F)(F)F)c1ccc(C(O)(C(F)(F)F)C(F)(F)F)cc1 [Compound T0901317, N-(2,2,2-Trifluoro-ethyl)-N-[4-(2,2,2-trifluoro-1-hydroxy-1-trifluoromethyl-ethyl)-phenyl]-benzenesulfonamide, reference compound] | > 10 | > 10 | > 10 | > 10 | – | – | – | – | – | – | – | – | – | – | – | – |
| C[C@@H]1CC[C@@]2(OC1)O[C@H]1C[C@H]3[C@@H]4CC[C@H]5C[C@@H](O)CC[C@]5(C)[C@H]4C[C@@H](O)[C@]3(C)[C@H]1[C@@H]2C [OR-885, 5α,20α, 22α, 25D-SPIROSTAN-3β, 12β-DIOL] | – | – | – | – | 0.2 | < 1 µM | > 10 | > 10 | > 10 | > 10 | > 10 | – | – | – | – | – |
| COC(C)CCC(C)C1CCC2C3CC(O)C4CC(O)CCC4(C)C3CCC12C (centres unmarked) [OR-12872, 17-(4-Methoxy-1-methyl-pentyl)-10,13-dimethyl-hexadecahydro-cyclopenta[a]phenanthrene-3,6-diol] | > 10 | > 10 | > 10 | > 10 | – | – | – | – | – | – | – | 0.44 | > 10 | – | – | – |
| CCn1c(CNc2ccc(Cl)cc2)nnc1SCC(=O)Nc1cccc2ccccc12 [OR-133008, 2-{5-[(4-Chloro-phenylamino)-methyl]-4-ethyl-4H-[1,2,4]triazol-3-ylsulfanyl}-N-naphthalen-1-yl-acetamide] | > 10 | > 10 | > 10 | > 10 | – | – | – | – | – | – | – | – | > 10 | 1.46 | – | – |
| COc1c(C=NNc2nc(N3CCCCC3)nc(N3CCCCC3)n2)cccc1[N+](=O)[O-] [OR-2161, N-(4,6-Di-piperidin-1-yl-[1,3,5]triazin-2-yl)-N′-(2-methoxy-3-nitro-benzylidene)-hydrazine] | > 10 | > 10 | > 10 | > 10 | – | – | – | – | – | – | – | – | > 10 | 0.33 | – | – |
| CCN(c1ccc(C(O)(C(F)(F)F)C(F)(F)F)cc1)S(=O)(=O)c1ccc([N+](=O)[O-])cc1 [OR-1050, N-Ethyl-4-nitro-N-[4-(2,2,2-trifluoro-1-hydroxy-1-trifluoromethyl-ethyl)-phenyl]-benzenesulfonamide] | > 10 | > 10 | > 10 | > 10 | – | < 1 µM and 0.3 µM | – | – | – | – | – | – | > 10 | – | 0.26 | 0.26 |
| CC(=O)O[C@H]1CC[C@@]2(C)C(CC[C@]3(C)C2C(=O)C=C2C4[C@@H](C)[C@H](C)CC[C@]4(C(=O)O)CC[C@]23C)C1(C)C (stereo in doubt) [OR-13571, 10-Acetoxy-1,2,6a,6b,9,9,12a-heptamethyl-13-oxo-1,3,4,5,6,6a,6b,7,8,8a,9,10,11,12,12a,12b,13,14b-octadecahydro-2H-picene-4a-carboxylic acid] | > 10 | > 10 | > 10 | > 10 | – | < 1 µM | – | – | – | – | – | – | > 10 | 0.27 | – | – |
